Data as given in patent US20150018369A1 (priority 2012, published 2015).
Like-named read-outs stand apart in the source and are kept apart here.

Columns and labels:
[1] = tested on: T98 g cells; assay: Cell viability assay (WST-1), SAR of AI compounds at inducing cell death; assay type: cell-based, human
Protocol: (§1) Cells were plated media supplemented with 10% serum in 96-well plates (10^4 cells per wellI; 0.1 ml per well). Once they reached ˜70% confluence, they were rinsed with PBS and kept for an additional 24 his in media supplemented with 1% serum, at which time drugs or vehicle (DMSO, 0.1%, prepared in 10 μl serum-free media) were directly added to each well. After 3 days, cell viability was assessed using the Cell Proliferation Reagent WST-1 (Roche, Indianapolis, Ind.). Briefly, WST-1 reagent (10 μl) was added to each well for 3 hrs at 37° C. with 5% CO2 and WST-1 products were read at 450 nm using Packard SpectraCount™.
Because the strongest toxic effect of WIN55212-2 (ST-1) was measured in T98 g cells, these cells are used as readout to study the structure activity relationship (SAR) of AI compounds at inducing cell death. Table 2 provides the chemical structure, potency and efficacy of several AI compounds.

[2] = tested on: protein expressed by NG108-15 cells; details: cited from earlier work
[3] = tested on: T98 g, MDA231 and sknmc cells; assay: Killing of cell lines lacking CB1/CB2 (sensitivity profile); assay type: cell-based, human; details: for potencies and efficacies at killing these cells: T98 g, MDA231 and sknmc cells
Protocol: as §1
Based on this evidence, it was determined if WIN55212-2 differentially kills T98 g, MDA231 and […] cells, thus providing an index of AI receptor functionality in these cells. Also tested is Δ^9-THC (classic cannabinoid) and CP55940 (non-classical cannabinoid).

[4] = tested on: homogenates from CB1-/- mice cerebellum; details: insensitive to SR144528; cited from earlier work
[5] = tested on: hippocampal slices from CB1-/- mice; details: blocked by capsazepine; cited from earlier work
[6] = tested on: AI receptors; assay: GTPγS binding in HEK293 cell homogenates; assay type: biochemical, human
Source text: When comparing the overall amino acid sequence of GPR124 to that of CB1 and CB2 receptors no significant homology was found. However, when focusing the comparison to the amino acid sequence encoding for the third transmembrane domains of GPR124 and CB2 receptors, 84% homology was found (FIG. 5a). […] Therefore, it is likely that ST-1, ST-11, and other AI compounds interact directly with the third transmembrane domain of GPR124. To determine the signaling mechanism of AI receptors, effect of ST-11 in HEX293 cells, which express GPR124 endogenously and commonly used to study GPCR pharmacology and signaling pathway, was tested.

[7] = molecular target: T1, human CB1 receptors (Homo sapiens, UniProt P21554); assay: HA-tagged receptor internalization, CB1; assay type: cell-based; details: FIG. 2a
T1 construct: HA; expressed in transfected cells
Source text: (§2) FIGS. 2d and 2e illustrate the co-docking of CP55940 and either WIN55212-2 (d) or ST-11 (e) in hCB1 receptors.

[8] = molecular target: CB2 (Homo sapiens, UniProt P34972); assay: HA-tagged receptor internalization, CB2; assay type: cell-based; design: HA; expressed in transfected cells; details: FIG. 2b
Source text: as §2

[9] = Homo sapiens, T98G, 72 h, T98 g cells, cell death, viability after 3 days, read-out: EC50
[10] = T98 g cells, cell death, viability after 3 days

CB2, sequence (P34972 whole entry): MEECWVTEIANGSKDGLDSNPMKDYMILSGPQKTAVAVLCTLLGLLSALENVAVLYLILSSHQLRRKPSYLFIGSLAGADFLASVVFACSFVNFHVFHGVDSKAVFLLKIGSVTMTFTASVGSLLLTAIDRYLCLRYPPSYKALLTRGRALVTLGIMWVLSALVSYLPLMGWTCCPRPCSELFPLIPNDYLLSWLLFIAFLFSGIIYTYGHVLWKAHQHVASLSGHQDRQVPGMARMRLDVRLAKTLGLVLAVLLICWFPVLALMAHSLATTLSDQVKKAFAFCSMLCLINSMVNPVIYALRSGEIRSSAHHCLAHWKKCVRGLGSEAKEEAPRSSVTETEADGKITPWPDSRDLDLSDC
T1 sequence (P21554 whole entry): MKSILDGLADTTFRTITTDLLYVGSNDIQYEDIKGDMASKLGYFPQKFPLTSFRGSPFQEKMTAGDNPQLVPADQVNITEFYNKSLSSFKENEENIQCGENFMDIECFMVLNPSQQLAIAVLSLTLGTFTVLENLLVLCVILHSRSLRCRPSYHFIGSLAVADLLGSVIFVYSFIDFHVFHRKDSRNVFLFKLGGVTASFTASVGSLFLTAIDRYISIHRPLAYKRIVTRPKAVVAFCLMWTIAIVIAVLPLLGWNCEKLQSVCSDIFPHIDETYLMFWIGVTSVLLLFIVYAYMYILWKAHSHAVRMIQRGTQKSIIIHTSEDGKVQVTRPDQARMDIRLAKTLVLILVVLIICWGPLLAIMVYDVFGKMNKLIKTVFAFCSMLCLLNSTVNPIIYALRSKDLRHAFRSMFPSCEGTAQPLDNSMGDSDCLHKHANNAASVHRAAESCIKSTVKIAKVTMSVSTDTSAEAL

In the case of `COc1ccc2c(c1)c(C(=O)c1ccc(C)c3ccccc13)c(C)n2CCN1CCOCC1` [ST-21], the EC50 ([1]; Homo sapiens, T98G, 72 h) is reported as 29 µM.

`CCn1c2ccccc2c2cc(C(=O)c3ccc(C)cc3)ccc21` [ST-63, (9-ethyl-carbazol-3-yl)(p-methylphenyl)methanone] showed an EC50 [1, 9] of 0.715 µM.

With `O=C1CCCc2c1c1ccccc1n2Cc1ccccc1` [ST-7] the “EC50 (μM)” value [1, 10] was “inactive”.

Work on `O=C(c1cccc2ccccc12)c1cn(CCN2CCOCC2)c2ccccc12` [ST-20] yielded an EC50 ([1]; Homo sapiens, T98G, 72 h) of 23 µM.

For `CCCn1cc(C(=O)c2ccc(C)c3ccccc23)c2ccccc21` [ST-14], the “EC50 (μM)” value [1, 10] was “inactive”.

Work on `Cc1ccc(C(=O)c2c(C)n(CCN3CCOCC3)c3ccc(Cl)cc23)c2ccccc12` [ST-22] yielded an EC50 ([1]; Homo sapiens, T98G, 72 h) of 5.4 µM.

For `CCCCCCC(C)(C)c1ccc([C@@H]2C[C@H](O)CC[C@H]2CCCO)c(O)c1` [CP55940, CP55,940], the “competition for WIN-2 binding” value [2] is given as “did not compete” and the “potencies and efficacies at killing these cells” value [3] is given as “inconsistent potencies and efficacies”.

Work on `Cc1ccc(C(=O)c2c(C)n(CCN3CCOCC3)c3cnccc23)c2ccccc12` [ST-31] yielded an EC50 ([1]; Homo sapiens, T98G, 72 h) of 20 µM.

In the case of `Cc1ccc(C(=O)c2c(C)n(CCN3CCOCC3)c3cc(Cl)cc(Cl)c23)c2ccccc12` [ST-27], the EC50 ([1]; Homo sapiens, T98G, 72 h) is reported as 0.409 µM.

With `Cc1ccc(C(=O)c2c(C(F)(F)F)n(CCN3CCOCC3)c3ccccc23)c2ccccc12` [ST-28] the EC50 ([1]; Homo sapiens, T98G, 72 h) was 2.7 µM.

For `CCN1C(=O)/C(=N\NC(=O)c2cccc3ccccc23)c2ccccc21` [ST-37], the EC50 ([1]; Homo sapiens, T98G, 72 h) was 5.6 µM.

In the case of `CCn1c2ccccc2c2cc(C(=O)N3CCN(C)CC3)ccc21` [ST-62, (9-ethyl-carbazol-3-yl)(N-methylpiperazine)methanone], the “EC50 (μM)” value [1, 10] is reported as “inactive”.

With `Cc1ccc(C(=O)c2c(C)n(CCN3CCOCC3)c3cc(Cl)ccc23)c2ccccc12` [ST-24] the EC50 ([1]; Homo sapiens, T98G, 72 h) was 1.4 µM.

In the case of `Cc1c(C(=O)c2cccc3ccccc23)c2cccc3c2n1[C@@H](CN1CCOCC1)CO3` [ST-1, WIN55212-2], the binding affinity [2] is given as “nanomolar affinity”, the “[35S]-GTPγS binding” value [4] is given as “increase [^35S]-GTPγS binding” and the EC50 ([1]; Homo sapiens, T98G, 72 h) is given as 2.1 µM. The EC50 ([3]; Homo sapiens, range over the three cell lines (FIG. 1), read-out: potency at killing T98 g, MDA231 and sknmc cells) was 1.5 to 2.9 µM, the toxic efficacy ([3]; rank order of cell lines) was “T98 g>MDA>sknmc” and the excitatory transmission [5] was “inhibit excitatory transmission”.

In the case of `Cc1c(CNN2CCOCC2)nn(C)c1C` [ST-49], the “EC50 (μM)” value [1, 10] is reported as “inactive”.

In the case of `CCCn1c(C)c(C(=O)c2ccc(C)c3ccccc23)c2ccccc21` [ST-18], the EC50 ([1]; Homo sapiens, T98G, 72 h) is reported as 1.9 µM.

In the case of `COCCn1cc(C(=O)N2CCCC(CN(C)C)C2)c2ccccc21` (stereo not shown) [ST-9], the “EC50 (μM)” value [1, 10] is reported as “inactive”.

For `CCCCCn1c2ccccc2c2cc(C(=O)N3CCCCC3)ccc21` [ST-32], the EC50 ([1]; Homo sapiens, T98G, 72 h) was 6.2 µM.

`Cc1ccc(C(=O)c2c(C)n(C3CC3)c3ccccc23)c2ccccc12` [ST-30] gave an EC50 ([1]; Homo sapiens, T98G, 72 h) of 1 µM.

With `COc1ccc(C(=O)c2c(C)n(CCN3CCOCC3)c3cc(C)ccc23)cc1` [ST-19] the EC50 ([1]; Homo sapiens, T98G, 72 h) was 7.4 µM.

With `O=C(c1ccccc1)c1cn(CC(=O)N2CCOCC2)c2ccccc12` [ST-46] the “EC50 (μM)” value [1, 10] was “inactive”.

For `CCCCCn1c2c(c3ccc(OC)cc31)CN(C(=O)c1ccccc1)CC2` [ST-35], the EC50 [1, 9] was ~30 µM.

In the case of `CCn1c2ccccc2c2cc(C(=O)N3CCCc4ccccc43)ccc21` [ST-53, (9-ethyl-carbazol-3-yl)(1,2,3,4-tetrahydraquinoline)methanone], the EC50 [1, 9] is reported as 0.516 µM.

With `Cc1nccn1CC1CCc2c(c3ccccc3n2C)C1=O` (stereo not shown) [ST-3] the “EC50 (μM)” value [1, 10] was “inactive”.

With `Cc1ccc(C(=O)c2c(C)n(CCN3CCOCC3)c3ncccc23)c2ccccc12` [ST-23] the GTPγS binding [6] was “increase GTP[…]S binding”, the EC50 ([1]; Homo sapiens, T98G, 72 h) was 3.5 µM and the “cross-activation of human CB1 receptors (receptor internalization)” value [7] was “engage CB1 receptors”.

With `CC(=O)c1c(C)n(CCOc2ccccc2)c2ccccc12` [ST-2] the EC50 ([1]; Homo sapiens, T98G, 72 h) was 21 µM.

Molecule `Cc1c(C(=O)c2cccc3ccccc23)c2ccccc2n1C` [ST-12] has an EC50 ([1]; Homo sapiens, T98G, 72 h) of 3.1 µM.

Work on `Cc1ccc(C(=O)n2c3ccccc3c3ccccc32)c2ccccc12` [ST-64] yielded an EC50 [1, 9] of 1.87 µM.

For `Cc1ccc(C(=O)c2c(C)n(CCN3CCOCC3)c3ccccc23)c2ccccc12` [ST-48], the “cross-activation of human CB2 receptors (receptor internalization)” value [8] was “engage CB2 receptors”, the EC50 ([1]; Homo sapiens, T98G, 72 h) was 6.7 µM and the “cross-activation of human CB1 receptors (receptor internalization)” value [7] was “engage CB1 receptors”.

In the case of `COc1ccc2c3cc(C(=O)N4CCCCC4)ccc3n(CC3CCCCC3)c2c1` [ST-36], the EC50 ([1]; Homo sapiens, T98G, 72 h) is reported as 3.7 µM.

In the case of `Cc1ccc(C(=O)c2c3n(c4ccccc24)CCCC3)c2ccccc12` [ST-25], the GTPγS binding [6] is reported as “increase GTP[…]S binding” and the EC50 ([1]; Homo sapiens, T98G, 72 h) is reported as 0.634 µM.

`CCn1c2ccccc2c2cc(C(=O)c3ccc(C)c4ccccc34)ccc21` [ST-34, (9-ethyl-9H-carbazol-3-yl)(4-methylnaphthalen-1-yl)methanone] showed an EC50 ([1]; Homo sapiens, T98G, 72 h) of 0.077 µM.

With `CCn1c2c(c3ccccc31)CN(S(=O)(=O)c1ccc(Cl)c3nonc13)CC2` [ST-59] the “EC50 (μM)” value [1, 10] was “inactive”.

For `CCn1c(C)c(C(=O)c2cccc3ccccc23)c2ccccc21` [ST-13], the EC50 ([1]; Homo sapiens, T98G, 72 h) was 7.9 µM.

Work on `COc1ccc2c(C(=O)c3ccc(C)c4ccccc34)c(C)n(CCN3CCOCC3)c2c1` [ST-26] yielded an EC50 ([1]; Homo sapiens, T98G, 72 h) of 2.5 µM.

With `CCCn1c(C)c(C(=O)c2cccc3ccccc23)c2ccccc21` [ST-15] the EC50 ([1]; Homo sapiens, T98G, 72 h) was 1.5 µM.

“5-ethyl-7-methoxy-2-[(4-methylnaphthalen-1-yl)carbonyl]-1H,2H,3H,4H,5H-pyrido[4,3-b]indole [ST-33]” gave an EC50 ([1]; T98 g cells, cell death, viability after 3 days, read-out: EC50) of 1.4 µM.

In the case of `COc1ccc2c(c1)c(C(=O)N1CCCC(c3nnc4ccccn34)C1)c(C)n2C` (stereo not shown) [ST-41], the “EC50 (μM)” value [1, 10] is reported as “inactive”.

`COCCn1c(C)c(C(=O)N2CCC3(CC2)NC(=O)N(C)C3=O)c2ccccc21` [ST-8] showed an EC50 ([1]; Homo sapiens, T98G, 72 h) of 29 µM.

In the case of `CCn1c(C)c(C(=O)c2ccc(OC)cc2)c2ccccc21` [ST-47], the EC50 ([1]; Homo sapiens, T98G, 72 h) is reported as ~20 µM.

`Cc1ccc(C(=O)c2c(C)n(C)c3ccccc23)c2ccccc12` [ST-10] gave an EC50 ([1]; Homo sapiens, T98G, 72 h) of 2.9 µM.

With `Cn1cc(C(=O)N2CCCc3ccccc32)c2ccccc21` [ST-40] the “EC50 (μM)” value [1, 10] was “inactive”.

`CC(=O)c1c(C)n(CCOc2cccc3ccccc23)c2ccccc12` [ST-45] showed an EC50 ([1]; Homo sapiens, T98G, 72 h) of 30 µM.

In the case of `Cc1c(C(=O)Cn2cnc3ccccc3c2=O)c2ccccc2n1C` [ST-5], the “EC50 (μM)” value [1, 10] is reported as “inactive”.

In the case of `CC(=O)c1c(C)n(CCCOc2ccccc2)c2ccccc12` [ST-44], the EC50 ([1]; Homo sapiens, T98G, 72 h) is reported as > 20 µM.

In the case of `Cc1ccc(C(=O)c2c(C)n(CC(F)(F)F)c3ccccc23)c2ccccc12` [ST-29], the GTPγS binding [6] is reported as “increase GTP[…]S binding”, the “cross-activation of human CB2 receptors (receptor internalization)” value [8] is reported as “engage CB2 receptors” and the EC50 ([1]; Homo sapiens, T98G, 72 h) is reported as 1 µM.

In the case of `CCCCCn1cc(C(=O)c2cccc3ccccc23)cc1-c1cc(C)cc(O)c1` [ST-16], the “EC50 (μM)” value [1, 10] is reported as “inactive”.

For `Cc1c(C(=O)C(F)(F)F)c2ccccc2n1CC(=O)NCc1ccccc1` [ST-6], the “EC50 (μM)” value [1, 10] was “inactive”.

For `CCCn1c2ccccc2c2cc(C(=O)c3ccc(C)c4ccccc34)ccc21` [ST-58, (9-propyl-carbazol-3-yl)(4-methyl-naphthyl)methanone], the “EC50 (μM)” value [1, 10] was “inactive”.

With `COc1ccc(C(=O)c2c(C)n(CCN3CCOCC3)c3ccccc23)cc1` [ST-17] the EC50 ([1]; Homo sapiens, T98G, 72 h) was 24 µM.

In the case of `CCCCCc1cc(O)c2c(c1)OC(C)(C)[C@@H]1CCC(C)=C[C@@H]21` [THC, Δ^9-THC], the “potencies and efficacies at killing these cells” value [3] is reported as “inconsistent potencies and efficacies”.

With `CC1=C(CCN2C(=O)COc3ccccc32)c2ccccc2C1C` (stereo not shown) [ST-4] the “EC50 (μM)” value [1, 10] was “inactive”.

For `COc1ccc2c(c1)c(C(O)N1CCCC(c3nnc4ccccn34)C1)c(C)n2C` (stereo not shown) [ST-42], the “EC50 (μM)” value [1, 10] was “inactive”.

For `CCOC(=O)N1CCc2c(c3cc(C(=O)c4ccc(C)c5ccccc45)ccc3n2CC)C1`, the EC50 ([1]; Homo sapiens, T98G, 72 h) was 6 µM.
